Reference: patent US20210401867A1, “PHOTOSENSITIZERS AND METHOD OF TREATING CANCER USING THE SAME” (Cheng-Wen Wu, priority 2018, published 2021)

Key:
γH2AX = experiment: Western blotting for pATM, γH2AX and c-CASP3 in FaDu cells; type: cell-based, human; details: 10 μM IdU and 2 Gy of NR, 30 minutes after irradiation, among all treatments
Description: To investigate the mechanism associated with the combination of IdU and NR in the Auger molecular therapy, molecular markers involving DNA damage and apoptosis are analyzed. In vitro FaDu cells are treated with 10 μM of IdU, and irradiated by 2Gy of NR or RS2000. 30 minutes after above treatments, FaDu cells are subjected to Western blot to determine the expression of several proteins relevant to DNA damage and apoptosis: phosphor-ATM (pATM) is a protein kinase activated by DNA double-strand-breaks (DSBs), and it phosphorylates several key factors to initiate DNA damage checkpoint and repair; γH2AX is one of the targets of pATM, and it forms the foundation of chromatin-based signaling cascades at DSBs sites, and it is widely considered as a highly specific and sensitive marker for quantitative evaluation of DSB; and CASP3 is a marker for increased apoptosis, wherein c-CASP3 is a cleaved CASP3 formed when apoptotic signals are present in the cell. The subcutaneous tumor also subjected to Western blot 3 days after the above treatments.
FIGS. 17A and 17B are results of Western blotting for protein expression levels of pATM, γH2AX, and c-CASP3, in accordance with exemplary embodiments of the present disclosure. FIG. 17A is the result at 30 minutes after irradiation, and FIG. 17B is the result at 3 days after irradiation, wherein β-ACTIN are served as an internal control in both figures. […]

[1] = test system: subcutaneous malignant solid tumor comprised of FaDu cells; experiment: in vivo tumor growth of subcutaneous FaDu solid tumor on tumorigenic mice; details: for tumor growth inhibition rate: end of the in vivo test; for relative proliferation rate of solid tumor: repeated after 7 days
Description: FIG. 12 is a schematic diagram of an in vivo animal experiment, in accordance with an exemplary embodiment of the present disclosure. A subcutaneous malignant solid tumor comprised of FaDu cells (tumor size is about 200 mm^3) on the tumorigenic mice is injected with 0.5 μg/μl of IdU. 4 hours after the injection, the solid tumor is then irradiated by 4 Gy 33 keV NR. The IdU-NR treatment are repeated on the same tumor after 7 days. Other groups of mouse are only injected with 50 μg of IdU or only irradiated with 4 Gy 33 keV NR, and the IdU injection or the NR irradiation is repeated on the same tumor after 7 days. The control group is the mice without NR, IdU, or IdU-NR treatment.
The subcutaneous malignant solid tumor comprised of FaDu cells on the tumorigenic mice is treated with IdU, NR, or IdU and NR, following the same experiment procedure as depicted in FIG. 12. The relative proliferation rates of the solid tumors are calculated by measuring the size of the solid tumor on Days 3, 7, 10, 14, 17, 21, 24, and 28, respectively. […] The solid tumor of IdU-NR group has the lowest relative proliferation rate among other groups, and the relative proliferation rate of IdU-NR group is even lower than 100% (p<0.05), this indicates the tumor size is smaller after the IdU and NR treatment.
To further investigate a therapeutically effective dosage for the combination of IdU and NR, another series of in vivo experiments are conducted, see FIGS. 15A-15F. The experiment procedure is the same with the procedure described in FIG. 12. FIG. 15A and FIG. 15B show cells irradiated with 2.25 Gy NR and 2.25 Gy RS2000, FIG. 15C and FIG. 15D show cells irradiated with 4.5 Gy NR and 4.5 Gy RS2000, and FIG. 15E and FIG. 15F show cells irradiated with 9 Gy NR and 9 Gy RS2000, in accordance with exemplary embodiments of the present disclosure. Control groups in FIGS. 15A-15F are FaDu cells isolated from the subcutaneous solid tumor of the tumorigenic mouse without treatment of IdU or any radiation. The tumor growth index in FIGS. 15A-15F are calculated based on tumor volumes: for each of the tumorigenic mouse, the tumor volume on Day 0 is set as 100%, and relative volume percentages in the following days relative to Day 0 are presented as the tumor growth index (%).

FaDu cells = experiment: comet assay for DNA damage in FaDu cells; type: cell-based, human; details: 1 μM BrdU with 1 Gy of 14 keV NR, versus BrdU-RS2000 or RS2000
Description: Referring to FIGS. 22A and 22B, comet assays for evaluating DNA damages induced by BrdU, RS2000, BrdU with RS2000, NR, and NR with BrdU are provided in accordance with an exemplary embodiment of the present disclosure. Comet assays are commonly used to measure DNA single-strand breaks […] and double-strand breaks (DSBs). FaDu cells (10^4 cells/10 μl of PBS) are mixed with 75 μl of 0.75% low-melting agarose. The mixture is then immediately embedded onto a glass slide pre-coated with 2 layers of 1% agarose, and spread evenly with a coverslip. The mixture on the glass slide is solidified on ice for 5 minutes. 2 additional layers of 1% agarose are then coated on the cell layer. The cell is then soaked with cell lysis buffer (10 mM Tris, 2.5 M NaCl, 100 mM Na2-EDTA, and 1% Triton X-100, pH 10.0) at 4° C. for 1 hour. The slide is then placed horizontally in an electrophoretic apparatus with alkaline electrophoretic buffer ([…] and 1 mM Na2-EDTA, pH >12.0) for 60 minutes, and then electrophoresis is conducted in the apparatus for 30 minutes at 25 V and 300 mA. After the electrophoresis has ended, the slide is soaked with neutralization buffer (0.4 M Tris, pH 7.4) for 10 minutes. The cells on the slide are stained with propidium iodide (PI) of 20 μg/ml and subjected to microscopic examination. […] FIG. 22B is a quantified result of FIG. 22A. […]

O=c1[nH]c(=O)n([C@H]2C[C@H](O)[C@@H](CO)O2)cc1I [IdU, iododeoxyuridine] was tested, and the “γH2AX expression (Western blot)” value (γH2AX) was “most γH2AX expression”, the “tumor growth inhibition rate” value ([1]; IdU 50 μg and 4.5 Gy NR) was 68% and the “tumor growth inhibition rate” value ([1]; IdU 50 μg and 9 Gy NR) was 83%. The “tumor growth versus RS2000 only” value ([1]; IdU 50 μg and RS2000 (2.25, 4.5, 9 Gy)) was “does not significantly inhibit the tumor growth”, the “relative proliferation rate of solid tumor” value ([1]; IdU-NR group, 0.5 μg/μl IdU plus 4 Gy 33 keV NR, p<0.05) was “lower than 100%” and the “relative proliferation rate of solid tumor” value ([1]; IdU-only group, 50 μg of IdU, to Day 28) was “lower relative proliferation rate than the control group”. For the same compound, the “tumor growth (tumor growth index)” value ([1]; treated only with IdU, 50 μg) was “not inhibited”.

In the case of O=c1[nH]c(=O)n([C@H]2C[C@H](O)[C@@H](CO)O2)cc1Br [BrdU, bromodeoxyuridine], the “relative DNA tail movement (comet assay)” value (FaDu cells) is reported as “largest relative DNA tail movements”.
